How the values were obtained:
Oct4^− BCCs = assay: Chemical induction of GFP in Oct4(−) breast cancer cells stably transfected with pEGFP1-Oct3/4; assay type: cell-based; details: 2.7 μM BIX01294, 24 h, pEGFP1-Oct3/4 stable transfectants
Description: Therefore, different BCC subsets were selected based on Oct4 expression. To do this, MDA-MB-231 and T47D were stably transfected with an Oct4 reporter vector, pEGFP1-Oct3/4 (Gerrard, L. et al. 2005. Stem Cells 23:124-133). The transfected cells were sorted into three subsets based on GFP expression levels. The top 5% of GFP expressers were designated Oct4^hi and the lowest 5%, Oct4^−. The population between the extremes were designated Oct4^med. GFP intensities were validated for correlation with Oct4 protein by intracellular flow cytometry of pEGFP1-Oct3/4 transfectants. The Oct4^− population was similar to isotype control. In contrast, the mean fluorescence intensity (MFI) of cells labeled with APC-anti-Oct4 correlated with GFP intensities.
At 40-50% confluence stably transfected BCCs were treated with G9a histone methyltransferase inhibitor, [2-(Hexahydro-4-methyl-1H-1,4-diazepin-1-yl)-6,7-dimethoxy-N-[1-(phenylmethyl)-4-piperidinyl]4-quinazolinamine] (BIX01294, Enzo Life Sciences, Farmingdale, N.Y.). BIX01294 and similar chemicals can induce Oct4 in negative cells, in reprogramming (Huangfu, D. et al. 2008. Nat. Biotech. 26:795-797; Shi, Y. et al. 2008. Cell Stem Cell 3:568-574). Cells were treated with 2.7 μM BIX01294. After 24 h, images were taken by fluorescence microscopy. Control cells were untreated or treated with vehicle (dimethyl sulphoxide, DMSO).

unsorted BCCs = assay: Carboplatin response of subcutaneous tumors from unsorted BCCs; assay type: in vivo, nude BALB/c mice; details: 50 mg/kg i.p. twice at 3-day intervals
Method: (§1) Both triple-negative MDA-MB-231 and triple-positive T47D are expected to respond to carboplatin treatment, a drug which acts through a mechanism independent of hormone receptor status. Thus, the responsiveness to carboplatin was investigated in Oct4^hi cells from both cells lines. Tumors were injected into the dorsal flanks of mice as before. When the tumors were 0.5 cm^3 the mice were injected with carboplatin intra-peritoneally (i.p.).
(§2) Serial passage of different BCC subsets was performed by injecting BCCs in dorsal flanks of mice. The cells were resuspended in PBS and then mixed with matrigel at 1:1 ratio in 0.2 mL total volume. The cells were injected at different numbers, but in a constant volume to study dose effects on the time for tumor growth. Parallel analyses were performed with unsorted BCCs. Tumors were monitored daily for 30 days and measured in two dimensions with a caliper and volume was calculated using the following: formula V=πr^2h, where r=radius and h=height. Subsequent passages occurred by sorting the same cell subset (top 5% highest GFP) and then repeating the injection as above.
(§3) Carboplatin responses to tumor growth were assessed by subcutaneous injection of 200 Oct4^hi BCCs in matrigel in the dorsal flank. For unsorted BCCs, 10^6 cells were injected. […] Tumor sizes were recorded every 2 days with a caliper, as described for serial passage.

Oct4^hi BCCs = assay: Carboplatin response of subcutaneous tumors from Oct4^hi BCCs; assay type: in vivo, nude BALB/c mice; details: 50 mg/kg i.p. twice at 3-day intervals, same tumor size as unsorted BCCs
Method: as §1, §2, §3

Oct4^hi MDA-MB-231 = assay: Carboplatin resistance of Oct4^hi BCCs in bone marrow (femur endosteum); assay type: in vivo, mice; details: 10^3 Oct4^hi MDA-MB-231 i.v.; carboplatin 50 mg/kg i.p. at 3-day intervals; femurs examined one week after second injection
Method: It was then determined if Oct4^hi BCCs, at sites of distant metastasis, such as bone marrow, could resist carboplatin treatment. Bone marrow was selected for study because it is well-established that BCCs can attain dormancy in this organ, close to the endosteum (Lim, P. K. et al. 2011. Cancer Res. 71:1550-1560; Rao, G. et al. 2004. Cancer Res. 64:2874-2881). Mice were injected intravenously with 10^3 Oct4^hi MDA-MB-231. After 1 day, carboplatin was injected i.p. at 3-day intervals. One week after the second injection, femurs were decalcified, processed, and examined for GFP^+ cells. […] Similar cells were not detected in the cellular regions of the marrow, which were flushed from femurs prior to the analyses of the endosteal regions. Mice were injected intravenously with 10^3 BCCs, stably transfected with pEGFP1-Oct3/4. After 24 hours, mice were injected i.p. with carboplatin (50 mg/kg), followed by a second dose after 3 days. One week after the final injection of carboplatin, mice were euthanized, and the femurs were removed. Femurs were rinsed and the cells flushed using a 27 gauge needle attached to a syringe with PBS to remove the cells within the central region of the cavity. After this, the femurs were fixed overnight in 4% formaldehyde at 4° C. […] Slides were examined with an EVOS fl fluorescence imager.

[1] = tested on: GJIC between Oct4^hi BCCs and BM stroma; assay: GJIC in co-cultures of Oct4^hi BCCs and bone marrow stroma with or without 1-octanol; assay type: cell-based; details: 300 μM 1-octanol
Description: Connexin (Cx) expression was studied using plasma membrane extracts from unsorted, Oct4^hi, Oct4^med and Oct4^− BCCs. […] It was next determined if the higher expression of connexins in BCCs could provide the cells with an advantage to form GJIC, in co-cultures of Oct4^hi BCCs and BM stroma. […] As expected, in the presence of the GJIC inhibitor 1-octanol, the intensity of Cx43 was reduced. GJIC was studied via dye transfer between BCCs and stroma using CFDA-SE-labeled Oct4^hi BCCs, as described previously (Lim, P. K. et al. 2011. Cancer Res. 71:1550-1560). Dye transfer into stroma was blunted by 1-octanol. Finally, the total number of BCCs showing dye transfer was counted in order to quantify functional GJIC.
GJIC was assessed by CFDA-SE dye exchange from BCCs to stroma in co-cultures, as described previously (Ramkisson, S. H. et al. 2007. Cancer Res. 67:1653-1659). Briefly, BCCs and stroma were co-cultured at equal ratios in α-MEM with 10% FCS, in the presence or absence of 300 μM 1-octanol. CFDA-SE dye transfer was assessed on an EVOS fl fluorescence imager (AMG Micro, Bothell, Wash.).

[2] = tested on: Oct4^hi BCCs (MDA-MB-231 and T47D); assay: Hoechst 33342 dye exclusion (side population) in the presence or absence of verapamil; assay type: cell-based; details: 400 μM verapamil, 5 μg/mL Hoechst 33342, Oct4^hi population
Method: FIG. 7 depicts results of experiments of dye retention in BCC subsets. Oct4^hi BCCs were labeled with Hoechst 33342 (5 μg/mL), in the presence or absence of 400 μM verapamil. Propidium iodide-negative cells were gated based on GFP intensity. The cells were analyzed on Hoechst Blue and Hoechst Red filters. Side population cells that were Hoechst negative (circled) were compared in the two experimental conditions. The figure represents five different experiments, with MDA-MB-231 and T47D.
Experiments were then performed to determine if drug resistance genes played any role in the differentiation of BCC subsets. […] Oct4^hi cells were incubated in the presence or absence of verapamil, which inhibits multi-drug resistance transporters, and then dye exclusion was tested in four different experiments. Oct4^hi, Oct4^med and Oct4^− cells were tested. […] Only few Oct4^med (FIG. 8) and Oct4^− cells (FIG. 9) excluded the dye.
Side population analysis of the pEGFP1-Oct4 stable transfectants was performed using the LSR II (BD Biosciences). […] Optimal titrations and conditions were determined to be 5 μg/ml Hoechst 33342 (90 min incubation at 37° C.) and 400 μM verapamil (10 min pre-incubation). […] The cells between the two extremes were also analyzed (Oct4^med).

COc1cc2nc(N3CCCN(C)CC3)nc(NC3CCN(Cc4ccccc4)CC3)c2cc1OC [BIX01294, 2-(Hexahydro-4-methyl-1H-1,4-diazepin-1-yl)-6,7-dimethoxy-N-[1-(phenylmethyl)-4-piperidinyl]4-quinazolinamine]
Oct4^− BCCs reverted to high GFP expression (Oct4^− BCCs): 92.5%±4.4%

N.N.O=C([O-])C1(C(=O)[O-])CCC1.[Pt+2] [carboplatin]
tumors eight days after treatment with carboplatin (unsorted BCCs; mice injected with unsorted BCCs): tumors were undetectable
tumor change after the second injection of carboplatin (unsorted BCCs; tumors 0.5 cm^3 at start, vs Oct4^hi and untreated unsorted BCC): significant (p<0.05) reduction
tumors after carboplatin treatment (Oct4^hi BCCs): retained palpable tumors
GFP^+ BCCs in femur after carboplatin (Oct4^hi MDA-MB-231): drug resistance in GFP^+ BCCs close to the endosteum of bone marrow

CCCCCCCCO [1-octanol]
CFDA-SE dye transfer into stroma ([1]; CFDA-SE-labeled Oct4^hi BCCs): blunted
intensity of Cx43 immunofluorescence ([1]; co-cultures of Oct4^hi BCCs and BM stroma): reduced

COc1ccc(CCN(C)CCCC(C#N)(c2ccc(OC)c(OC)c2)C(C)C)cc1OC (centres unmarked) [verapamil]
difference in Hoechst dye retention with verapamil [2]: 3 fold

Reference: patent publication US20120295804A1, “Compositions and Methods for Diagnosis and Treatment of Breast Cancer” (University of Medicine and Dentistry of New Jersey, priority 2011, published 2012)
